Experimental data as given in article PMC9774241, “Associating Biological Activity and Predicted Structure of Antimicrobial Peptides from Amphibians and Insects” (Antibiotics, 2022).
In brackets after ≈: the same amount, converted by molar mass. Like-named read-outs stand apart in the source and are kept apart here. Residues, ends and D or L forms follow the SMILES beside them. No end group written: not given here.

Key:
Format in all cases: cell-based
[1] = tested on: Salmonella enterica serovar Enteritidis (human clinical isolate)
Procedure: (§1) Bacteria were grown overnight at 37 °C in Mueller-Hinton Broth (MHB; Sigma-Aldrich, St. Louis. MO, USA) in a shaking incubator and aliquoted into cryovials with a 50% glycerol solution in a 1:1 ratio. No additives were added to the MHB during the growth of bacterial isolates. Glycerol stocks were stored at −80 °C.
(§2) The antimicrobial activity of the putative AMPs was determined by a broth microdilution assay as described by the Clinical and Laboratory Standards Institute, with the published adaptations for testing of cationic peptides. Escherichia coli 25922 and Staphylococcus aureus 29213 isolates were purchased from the American Type Culture Collection (ATCC; Manassas, VA, USA). A human clinical isolate of Salmonella enterica serovar Enteritidis was provided by the BC Centre for Disease Control. Bacteria from stocks stored at −80 °C were streaked onto nonselective Columbia blood agar with 5% sheep blood (Oxoid) and incubated overnight at 37 °C. Next, 2–4 colonies were streaked onto a new agar plate to ensure uniform health of colonies used in the broth microdilution assay. Isolated colonies were suspended in MHB and the optical density was measured with a spectrophotometer to create an initial inoculum concentration of approximately 1 × 10^8 cfu/mL. The inoculum was diluted 1:250 to a final concentration of 2–8 × 10^5 cfu/mL, which was confirmed by performing a Total Viability Count (TVC). The TVC consisted of plating a 1:1000 dilution of the final inoculum on nonselective media and was also used to confirm the health and purity of the inoculum in each trial.
(§3) Lyophilized 80 µg peptide aliquots synthesized by GenScript (Piscataway, NJ, USA) were resuspended to 1.28 mg/mL with UltraPure water (Thermo Fisher Scientific, Waltham, MA, USA) and serially diluted in polypropylene 96-well microtiter plates (Greiner Bio-One #650261, Kremsmünster, Austria) from 128 down to 0.5 µg/mL. Two columns per plate were reserved for growth and sterility controls. Inoculum was added to the wells containing the peptide and the growth control. Plates were incubated for 20–24 h at 37 °C. The minimum inhibitory concentration (MIC) was determined as the lowest peptide concentration where there was no visible bacterial growth.

[2] = tested on: Staphylococcus aureus ATCC 29213
Procedure: as §1, §2, §3

[3] = tested on: Escherichia coli ATCC 25922
Procedure: as §1, §2, §3

[4] = broth microdilution in MHB, peptide 128 down to 0.5 µg/mL, 20–24 h at 37 °C, no visible growth, range of three independent experiments

CC[C@H](C)[C@H](NC(=O)CNC(=O)[C@H](CO)NC(=O)[C@H](CC(C)C)NC(=O)[C@H](CC(C)C)NC(=O)CN)C(=O)N[C@@H](CC(C)C)C(=O)NCC(=O)N[C@@H](C)C(=O)NCC(=O)N[C@@H](CCCCN)C(=O)N[C@@H](CCCCN)C(=O)N[C@H](C(=O)N[C@H](C(=O)N[C@@H](CS)C(=O)NCC(=O)N[C@@H](Cc1ccccc1)C(=O)N[C@@H](CO)C(=O)NCC(=O)N[C@@H](CC(C)C)C(=O)N[C@@H](CS)C(=O)O)C(C)C)[C@@H](C)CC [OdMa1] (H-GLLSGILGAGKKIVCGFSGLC-OH; N-terminus and C-terminus assumed)
MIC, Salmonella Enteritidis [1, 4]: 128 µg/mL (≈ 64.2 µM)
MIC, S. aureus ATCC 29213 [2, 4]: 64 µg/mL (≈ 32.1 µM)
MIC, E. coli ATCC 25922 [3, 4]: 8 to 16 µg/mL

CC[C@H](C)[C@H](NC(=O)[C@H](CO)NC(=O)[C@@H]1CCCN1C(=O)[C@H](CC(C)C)NC(=O)[C@@H](NC(=O)[C@H](CCCCN)NC(=O)[C@H](C)NC(=O)[C@H](C)NC(=O)[C@H](CC(C)C)NC(=O)CNC(=O)[C@H](C)NC(=O)[C@@H](NC(=O)[C@@H](NC(=O)[C@@H]1CCCN1C(=O)[C@H](CC(C)C)NC(=O)[C@@H](N)Cc1ccccc1)C(C)C)C(C)C)C(C)C)C(=O)N[C@H](C(=O)N[C@@H](CS)C(=O)N[C@@H](C)C(=O)N[C@H](C(=O)N[C@H](C(=O)N[C@@H](CCCCN)C(=O)N[C@@H](CCCCN)C(=O)N[C@@H](CS)C(=O)O)[C@@H](C)O)C(C)C)[C@@H](C)CC [RaCa15] (H-FLPVVAGLAAKVLPSIICAVTKKC-OH; N-terminus and C-terminus assumed)
MIC, Salmonella Enteritidis [1, 4]: > 128 µg/mL
MIC, S. aureus ATCC 29213 [2, 4]: 4 to 8 µg/mL
MIC, E. coli ATCC 25922 [3, 4]: 8 to 16 µg/mL

CC(C)C[C@H](NC(=O)CNC(=O)[C@@H](NC(=O)[C@@H](NC(=O)CNC(=O)[C@H](CS)NC(=O)[C@H](CC(C)C)NC(=O)[C@@H](NC(=O)[C@H](CCCCN)NC(=O)[C@H](CCCCN)NC(=O)CNC(=O)[C@@H](NC(=O)CNC(=O)[C@H](CC(C)C)NC(=O)[C@@H](NC(=O)[C@H](CCCCN)NC(=O)CNC(=O)[C@H](CC(C)C)NC(=O)[C@H](CC(C)C)NC(=O)CN)C(C)C)C(C)C)C(C)C)C(C)C)[C@@H](C)O)C(=O)N[C@@H](CS)C(=O)O [PeNi1] (H-GLLGKVLGVGKKVLCGVTGLC-OH)
MIC, Salmonella Enteritidis [1, 4]: 8 to 16 µg/mL
MIC, S. aureus ATCC 29213 [2, 4]: 4 µg/mL (≈ 1.99 µM)
MIC, E. coli ATCC 25922 [3, 4]: 4 µg/mL (≈ 1.99 µM)

CC[C@H](C)[C@H](NC(=O)[C@H](CCCCN)NC(=O)[C@H](CS)NC(=O)[C@H](Cc1ccccc1)NC(=O)[C@H](CCCCN)NC(=O)[C@H](CCCNC(=N)N)NC(=O)[C@H](CO)NC(=O)[C@H](Cc1ccc(O)cc1)NC(=O)CNC(=O)[C@H](CS)NC(=O)[C@@H]1CCCN1C(=O)[C@H](C)NC(=O)[C@@H](NC(=O)[C@H](C)NC(=O)[C@H](Cc1ccccc1)NC(=O)[C@H](Cc1ccccc1)NC(=O)[C@H](Cc1ccccc1)NC(=O)[C@H](CCCNC(=N)N)NC(=O)[C@@H](N)CCCNC(=N)N)[C@@H](C)O)C(=O)N[C@H](C(=O)N[C@@H](CCCNC(=N)N)C(=O)N[C@@H](CCCNC(=N)N)C(=O)N[C@@H](CCCCN)C(=O)N[C@@H](CCCNC(=N)N)C(=O)O)[C@@H](C)O [CaCa4] (H-RRFFFATAPCGYSRKFCKITRRKR-OH)
MIC, Salmonella Enteritidis [1, 4]: 32 to 64 µg/mL
MIC, S. aureus ATCC 29213 [2, 4]: > 128 µg/mL
MIC, E. coli ATCC 25922 [3, 4]: 16 to 32 µg/mL

KEERGAPKGCWTKSYPPKPCSGKR [PeNi13]
MIC, Salmonella Enteritidis [1, 4]: > 128 µg/mL
MIC, S. aureus ATCC 29213 [2, 4]: > 128 µg/mL
MIC, E. coli ATCC 25922 [3, 4]: > 128 µg/mL

KYHHIKLRHGRHRRTIH [PaVa2]
MIC, Salmonella Enteritidis [1, 4]: > 128 µg/mL
MIC, S. aureus ATCC 29213 [2, 4]: > 128 µg/mL
MIC, E. coli ATCC 25922 [3, 4]: > 128 µg/mL

GLLGKVLGVGKKVLC [PeNi4, rAMPage-discovered AMP, Pelophylax nigromaculatus]
MIC, Salmonella Enteritidis [1, 4]: 4 to 8 µg/mL
MIC, S. aureus ATCC 29213 [2, 4]: 4 to 8 µg/mL
MIC, E. coli ATCC 25922 [3, 4]: 8 to 16 µg/mL

GILRLVTRRFRFSPTNLNRYTVARLVSGVP [BoAr6]
MIC, Salmonella Enteritidis [1, 4]: 64 µg/mL
MIC, S. aureus ATCC 29213 [2, 4]: 64 to 128 µg/mL
MIC, E. coli ATCC 25922 [3, 4]: 32 µg/mL

ISIKEALEHSFFHTVPRKWCKKH [PoSn1]
MIC, Salmonella Enteritidis [1, 4]: > 128 µg/mL
MIC, S. aureus ATCC 29213 [2, 4]: > 128 µg/mL
MIC, E. coli ATCC 25922 [3, 4]: 64 µg/mL

DNKWQNVHFHRSAVTGPTSFSFSHK [AnFl1]
MIC, Salmonella Enteritidis ([1]; serovar Enteritidis (human clinical isolate)): > 128 µg/mL
MIC, S. aureus ATCC 29213 ([2]; ATCC 29213): > 128 µg/mL
MIC, E. coli ATCC 25922 ([3]; ATCC 25922): > 128 µg/mL

CC[C@H](C)[C@H](NC(=O)CNC(=O)[C@H](CCCNC(=N)N)NC(=O)[C@H](CCCCN)NC(=O)[C@H](CCCCN)NC(=O)[C@H](CCCNC(=N)N)NC(=O)[C@@H]1CCCN1C(=O)[C@@H](NC(=O)[C@H](CCSC)NC(=O)[C@H](CC(C)C)NC(=O)[C@@H](N)CCCCN)[C@@H](C)CC)C(=O)N[C@@H](Cc1ccccc1)C(=O)NCC(=O)NCC(=O)N[C@@H](CC(C)C)C(=O)N[C@@H](CC(C)C)C(=O)N[C@@H](CCCCN)C(=O)N[C@H](C(=O)NCC(=O)N[C@@H](CCCCN)C(=O)N[C@@H](CCCCN)C(=O)N[C@H](C(=O)N[C@@H](C)C(=O)N[C@@H](CS)C(=O)NCC(=O)N[C@@H](CC(C)C)C(=O)N[C@@H](CO)C(=O)NCC(=O)N[C@@H](CC(C)C)C(=O)N[C@@H](CS)C(=O)O)[C@@H](C)CC)C(C)C [OdTo4] (H-KLMIPRKKRGIFGGLLKVGKKIACGLSGLC-OH; N-terminus and C-terminus assumed)
MIC, Salmonella Enteritidis [1, 4]: 16 µg/mL (≈ 5.02 µM)
MIC, S. aureus ATCC 29213 [2, 4]: 16 µg/mL (≈ 5.02 µM)
MIC, E. coli ATCC 25922 [3, 4]: 8 to 16 µg/mL

VPFGLKPR [TeRu1]
MIC, Salmonella Enteritidis [1, 4]: > 128 µg/mL
MIC, S. aureus ATCC 29213 [2, 4]: > 128 µg/mL
MIC, E. coli ATCC 25922 [3, 4]: > 128 µg/mL

RRAIFASIRGYLGLRKR [MyGu1]
MIC, Salmonella Enteritidis [1, 4]: 8 to 16 µg/mL
MIC, S. aureus ATCC 29213 [2, 4]: 128 µg/mL
MIC, E. coli ATCC 25922 [3, 4]: 4 µg/mL

GILSGLLGAGKKIVCGLSGMC [RaOm2, rAMPage-discovered AMP, Rana omeimontis]
MIC, Salmonella Enteritidis [1, 4]: > 128 µg/mL
MIC, S. aureus ATCC 29213 [2, 4]: > 128 µg/mL
MIC, E. coli ATCC 25922 [3, 4]: 64 to 128 µg/mL

CC[C@H](C)[C@H](NC(=O)CN)C(=O)N[C@@H](CC(C)C)C(=O)N[C@H](C(=O)N[C@@H](CC(=O)O)C(=O)N[C@H](C(=O)N[C@@H](CC(C)C)C(=O)N[C@@H](CCCCN)C(=O)NCC(=O)N[C@@H](C)C(=O)N[C@@H](C)C(=O)N[C@@H](CCCCN)C(=O)N[C@@H](CC(N)=O)C(=O)N[C@H](C(=O)N[C@@H](C)C(=O)NCC(=O)N[C@H](C(=O)N[C@@H](CC(C)C)C(=O)N[C@@H](CC(C)C)C(=O)N[C@@H](CC(=O)O)C(=O)N[C@@H](CCCCN)C(=O)N[C@@H](CC(C)C)C(=O)N[C@@H](CCCCN)C(=O)N[C@@H](CS)C(=O)N[C@@H](CCCCN)C(=O)N[C@H](C(=O)N[C@H](C(=O)NCC(=O)NCC(=O)N[C@@H](CS)C(=O)O)[C@@H](C)O)[C@@H](C)CC)C(C)C)C(C)C)[C@@H](C)O)[C@@H](C)O [PeNi11] (H-GILTDTLKGAAKNVAGVLLDKLKCKITGGC-OH; N-terminus and C-terminus assumed)
MIC, Salmonella Enteritidis [1, 4]: 128 µg/mL (≈ 42.6 µM)
MIC, S. aureus ATCC 29213 [2, 4]: 64 µg/mL (≈ 21.3 µM)
MIC, E. coli ATCC 25922 [3, 4]: 8 to 16 µg/mL

CC(C)C[C@H](NC(=O)CNC(=O)[C@H](CO)NC(=O)[C@@H](NC(=O)[C@@H](NC(=O)[C@H](CS)NC(=O)[C@H](CC(C)C)NC(=O)[C@@H](NC(=O)[C@H](CCCCN)NC(=O)[C@H](CCCCN)NC(=O)CNC(=O)[C@@H](NC(=O)CNC(=O)[C@H](CC(C)C)NC(=O)[C@@H](NC(=O)[C@H](CCCCN)NC(=O)CNC(=O)[C@H](CC(C)C)NC(=O)[C@H](CC(C)C)NC(=O)CN)C(C)C)C(C)C)C(C)C)C(C)C)C(C)C)C(=O)N[C@@H](CS)C(=O)O [PeNi2] (H-GLLGKVLGVGKKVLCVVSGLC-OH; N-terminus and C-terminus assumed)
MIC, Salmonella Enteritidis [1, 4]: 16 to 32 µg/mL
MIC, S. aureus ATCC 29213 [2, 4]: 4 µg/mL (≈ 1.96 µM)
MIC, E. coli ATCC 25922 [3, 4]: 4 µg/mL (≈ 1.96 µM)

CC[C@H](C)[C@H](NC(=O)CNC(=O)[C@H](C)NC(=O)[C@@H](NC(=O)[C@H](CC(N)=O)NC(=O)[C@H](CCCCN)NC(=O)[C@H](C)NC(=O)[C@H](C)NC(=O)CNC(=O)[C@H](CCCCN)NC(=O)[C@@H](NC(=O)[C@@H](NC(=O)[C@H](CC(=O)O)NC(=O)[C@H](CC(C)C)NC(=O)[C@H](CC(C)C)NC(=O)[C@H](CC(C)C)NC(=O)CN)[C@@H](C)O)C(C)C)C(C)C)C(=O)N[C@@H](CC(C)C)C(=O)N[C@@H](CC(C)C)C(=O)N[C@@H](CC(N)=O)C(=O)N[C@@H](CCCCN)C(=O)N[C@@H](CC(C)C)C(=O)N[C@@H](CCCCN)C(=O)N[C@@H](CS)C(=O)N[C@@H](CCCCN)C(=O)N[C@H](C(=O)N[C@H](C(=O)NCC(=O)N[C@@H](CC(=O)O)C(=O)N[C@@H](CS)C(=O)O)[C@@H](C)O)C(C)C [PeNi10] (H-GLLLDTVKGAAKNVAGILLNKLKCKVTGDC-OH; N-terminus and C-terminus assumed)
MIC, Salmonella Enteritidis [1, 4]: 64 to 128 µg/mL
MIC, S. aureus ATCC 29213 [2, 4]: 16 to 32 µg/mL
MIC, E. coli ATCC 25922 [3, 4]: 8 µg/mL (≈ 2.62 µM)
